Tests used:
[1] = Serum/plasma BHB in fed canines, gastric gavage (Examples 2-4); type: in vivo, canines (beagles); conditions: 500 mg/kg
Experimental: Ketosis may be assessed quantitatively by measuring plasma beta-hydroxybutyrate (BHB) concentrations. Methods of measuring plasma BHB concentrations are known in the art. Non-limiting exemplary methods for measuring plasma BHB concentrations are provided in U.S. Pat. No. 10,562,839, which is hereby incorporated by reference in its entirety. Plasma BHB levels may be determined by a colorimetric enzymatic assay (Stanbio Laboratory 2440-058).
(§1) A group of 6 beagles was evaluated per tested compound of the disclosure. In a first period, the canines were administered 250 mg/kg of C8-BHB. In a second period, the canines were administered 500 mg/kg of C8-BHB. In a third period, the canines were administered MCT at a dose of 5.5%. In a fourth period, the canines were administered 125 mg/kg of C8-BHB. A washout period of 7 days was provided between each of the first, second, third, and fourth periods.
(§2) Following the tolerability results of Example 1, the canines were fed, and the compound was administered by gastric gavage in subsequent examples.
In each of the first, second, third, and fourth period, serum was sampled prior to administration of the compound, then at minute 15, 30, 45, 60, 75, 90, 120, 180, 240, and 300. Serum was sampled for BHB analysis.
(§3) If emesis occurred 60 minutes from administration of the compound, serum BHB content was not analyzed.
C8-BHB and C8×2-BD were selected as exemplary compounds of the disclosure for administration to canines according to the method of Example 2. Each exemplary compound was administered to 6 canines.
To further evaluate the potential of the compounds of the disclosure for inducing ketosis in canines, the compounds and MCTs were administered to the same canines, as described in Example 2.

[2] = Tolerability in fed canines, gastric gavage (Example 2); type: in vivo
Experimental: as §1, §2
(§4) In each of the first, second, third, and fourth period, pathology samples were taken prior to administration of the compound, then at minute 20, 60, 90, 120, 180, 240, and 300.
as §3

[3] = Tolerability (emesis) in fasted canines, sublingual gavage (Example 1); type: in vivo; conditions: 250 mg/kg
Experimental: Example 1 provides a method by which compounds of the disclosure were evaluated in a first study, wherein dogs were fasted and the compounds were administered by sublingual gavage.
In a first period, a group of 12 canines (beagles) were administered 5.5% MCT in a first period, and 250 mg/kg C8-BHB in a second period. A 7 day washout period was provided between the first and second periods.
The canines were fasted, and the C8-BHB or MCTs was administered by sublingual gavage.
as §4
Where emesis occurred before 60 minutes from dosing, serum BHB content was not analyzed.
Where emesis occurred at or after 60 minutes from dosing and before 300 minutes from dosing, Cmax was calculated but AUC was not calculated.

SMILES	BHB Cmax [1]	BHB Tmax [1]	Tolerability compared to MCTs (FIGS. 2A-D) ([2]; fed canines, gastric gavage, doses of 125, 250 and 500 mg/kg)	Canines tolerating the substance ([2]; fed state, overall)	Tolerability compared to MCTs (FIG. 1B) [3]
CCCCCCCC(=O)O[C@H](C)CC(=O)OCC [C8-BHB, octanoyl-ethyl-3-hydroxybutyrate]	1.00 mM	51 min	improved tolerability	83%	better tolerated
CCCCCCCC(=O)OCC[C@@H](C)OC(=O)CCCCCCC [C8×2-BD, bis-octanoyl-1,3-butanediol]	0.70 mM	57 min			
